We go through 21 molecules from US11584714B2 (priority 2018, dated 2023).

Broadly, the pKi is the negative decadic logarithm of the Ki, by convention in mol/L. By Ki is commonly meant a measure of affinity in units of concentration, obtained from inhibition or displacement. The low end stands for a stronger hold on the target, the high end for a looser hold on the target.

Common to all, as to format: biochemical
Assay [1] has as its target human α-thrombin (Homo sapiens (Human), UniProt P00734). Briefly: Enzymatic assay for thrombin (Boc-VPR-AMC substrate). The note with it: for pKi: read-out: Thrombin Ki; for Ki: Thrombin Ki (μM).
The target of assay [2] is MASP-2 (CCP1-CCP2-SP) (Homo sapiens (Human), UniProt O00187). As to the kind of experiment: biochemical.
MASP-2 (CCP1-CCP2-SP), sequence (O00187 445-686): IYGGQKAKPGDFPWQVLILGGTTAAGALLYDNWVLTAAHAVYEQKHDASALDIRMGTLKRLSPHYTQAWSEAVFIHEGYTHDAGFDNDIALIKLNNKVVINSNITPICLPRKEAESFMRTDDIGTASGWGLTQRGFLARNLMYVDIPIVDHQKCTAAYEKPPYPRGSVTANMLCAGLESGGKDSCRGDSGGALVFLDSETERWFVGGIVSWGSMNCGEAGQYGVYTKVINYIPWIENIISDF
Assay [3] concerns the target mMASP-2 (Mus musculus (Mouse), UniProt Q91WP0). As to the kind of experiment: Enzymatic inhibition of mMASP-2. The note with it: read-out: mMASP-2 Ki.
The mark [4] stands for this setting: selectivity for MASP-2 inhibition versus thrombin.
The mark [5] stands for this setting: MASP-2 inhibition versus thrombin.

pKi: −log10 of the molar value. Counter-ions that a name gives are not always drawn. Like-named read-outs stand apart in the source and are kept apart here. A value given as a limit tells only on which side of the number the result lay.

mMASP-2, sequence (Q91WP0 20-685): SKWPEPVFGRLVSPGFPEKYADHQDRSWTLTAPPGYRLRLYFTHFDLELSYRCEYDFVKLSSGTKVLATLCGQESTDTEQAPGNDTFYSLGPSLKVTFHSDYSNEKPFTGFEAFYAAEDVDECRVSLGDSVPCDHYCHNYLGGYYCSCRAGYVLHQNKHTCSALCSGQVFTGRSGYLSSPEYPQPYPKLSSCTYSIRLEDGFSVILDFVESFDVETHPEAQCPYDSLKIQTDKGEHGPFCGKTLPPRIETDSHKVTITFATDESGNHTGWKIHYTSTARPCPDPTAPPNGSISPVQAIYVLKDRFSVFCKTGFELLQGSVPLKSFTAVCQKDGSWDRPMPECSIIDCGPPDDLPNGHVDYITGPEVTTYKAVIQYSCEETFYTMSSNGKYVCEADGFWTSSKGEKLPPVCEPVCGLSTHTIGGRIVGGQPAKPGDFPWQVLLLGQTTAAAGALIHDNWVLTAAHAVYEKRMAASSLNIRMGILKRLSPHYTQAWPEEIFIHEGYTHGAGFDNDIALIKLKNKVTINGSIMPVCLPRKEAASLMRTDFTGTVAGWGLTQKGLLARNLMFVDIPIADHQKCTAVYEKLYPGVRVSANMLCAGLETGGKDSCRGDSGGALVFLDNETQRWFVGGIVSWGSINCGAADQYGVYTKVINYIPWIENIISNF

Take `Cc1nc(N)ccc1CNC(=O)[C@H](C)NC(=O)[C@H]1C[C@@H](c2ccccc2)CCN1CCC(=O)O` [compound 1411, 3-((2R,4S)-2-(((S)-1-(((6-Amino-2-methylpyridin-3-yl)methyl)amino)-1-oxopropan-2-yl)carbamoyl)-4-phenylpiperidin-1-yl)propanoic acid Trifluoroacetate salt]: the negative-log Ki (pKi) in assay [1] was less than 4.60; in assay [2] (read-out: MASP-2 Ki) it was more than 6.30; in assay [3], more than 6.30.
For the molecule `Cc1nc(N)ccc1CNC(=O)[C@H](C)NC(=O)[C@H]1C[C@H](Cc2ccc(C3CCC3)cc2)CN1` [compound 1379, (2R,4S)—N—((S)-1-(((6-Amino-2-methylpyridin-3-yl)methyl)amino)-1-oxopropan-2-yl)-4-(4-cyclobutylbenzyl)pyrrolidine-2-carboxamide Di-trifluoroacetate salt], the pKi in assay [1] was less than 4.60; in assay [2] (read-out: MASP-2 Ki) it was more than 6.30; in assay [3], more than 6.30. For the same molecule, the “MASP-2 vs. thrombin selectivity” value in assay [2] (setting [4]) is “**** (≥100-fold)”.
Molecule `CCc1cccc([C@H]2CN[C@@H](C(=O)N[C@@H](C)C(=O)NCc3ccc(C(=N)N)cc3)C2)c1` [compound 1302, (2R,4S)—N—((S)-1-((4-Carbamimidoylbenzyl)amino)-1-oxopropan-2-yl)-4-(3-ethylphenyl)pyrrolidine-2-carboxamide Dihydrochloride] showed a Ki in assay [1] of 0.5 to 2.5 µM. Further, the pKi in assay [2] (read-out: MASP-2 Ki) and in assay [3] was more than 6.30 each time. The “MASP-2 vs. thrombin selectivity” value in assay [2] (setting [4]) is “*** (≥25 to <100-fold)”.
As for `Cc1nc(N)ccc1CNC(=O)[C@H](C)NC(=O)[C@H]1C[C@H](Cc2nc3cc(Cl)ccc3s2)CN1` [compound 1460, (2R,4R)—N—((S)-1-(((6-Amino-2-methylpyridin-3-yl)methyl)amino)-1-oxopropan-2-yl)-4-((5-chlorobenzo[d]thiazol-2-yl)methyl)pyrrolidine-2-carboxamide Di-trifluoroacetate salt], the negative-log Ki (pKi) was less than 4.60 in assay [1], more than 6.30 in assay [2] (read-out: MASP-2 Ki) and more than 6.30 in assay [3]. The “MASP-2 vs. thrombin selectivity” value in assay [2] (setting [4]) is “**** (≥100-fold)”.
Turning to `CC[C@H]1N[C@@H](C(=O)N[C@@H](C)C(=O)NCc2ccc(N)nc2C)C[C@@H]1Cc1ccccc1` [compound 1413, (2R,4S,5R)—N—((S)-1-(((6-Amino-2-methylpyridin-3-yl)methyl)amino)-1-oxopropan-2-yl)-4-benzyl-5-ethylpyrrolidine-2-carboxamide Di-trifluoroacetate salt], the pKi in assay [1] is less than 4.60; in assay [2] it was 5.60 to 6.30; in assay [3] it was 5.00 to 5.60. For the same molecule, in assay [2] (setting [4]), the “MASP-2 vs. thrombin selectivity” value is “*** (≥25 to <100-fold)”.
The corresponding values for `C[C@H](NC(=O)[C@H](N)CCc1ccccc1)C(=O)NCc1cc(C#N)ccc1O` [compound 1314, (R)-2-Amino-N—((S)-1-((5-cyano-2-hydroxybenzyl)amino)-1-oxopropan-2-yl)-4-phenylbutanamide Trifluoroacetate salt] are less than 4.60, 4.60 to 5.00, less than 4.60 and “* (≥1.0 to <5.0-fold)”.
As for `C[C@H](NC(=O)[C@H]1C[C@H](Cc2ccccc2)CN1)C(=O)NCc1cc(Cl)cc(Cl)c1O` [compound 1448, (2R,4S)-4-benzyl-N-((S)-1-((3,5-dichloro-2-hydroxybenzyl)amino)-1-oxopropan-2-yl)pyrrolidine-2-carboxamide, hydrochloride], the pKi in assay [1] is less than 4.60; in assay [2] (read-out: MASP-2 Ki), more than 6.30; in assay [3] it was 5.00 to 5.60. Besides, in assay [2] (setting [4]), the “MASP-2 vs. thrombin selectivity” value is on record as “**** (≥100-fold)”.
In assay [1], `Cc1nc(N)ccc1CNC(=O)[C@H](C)NC(=O)[C@H]1C[C@H](Cc2ccccc2)CN1` [compound 1304, (2R,4S)—N—((S)-1-(((6-Amino-2-methylpyridin-3-yl)methyl)amino)-1-oxopropan-2-yl)-4-benzylpyrrolidine-2-carboxamide Dihydrochloride] returned an inhibition constant Ki of 0.5 to 2.5 µM. In addition, the pKi was more than 6.30 in assay [2] (read-out: MASP-2 Ki) and 5.60 to 6.30 in assay [3]. Also, the “MASP-2 vs. thrombin selectivity” value in assay [2] (setting [4]) is reported as “*** (≥25 to <100-fold)”.
As to `CCN1CC[C@H](c2ccccc2)C[C@@H]1C(=O)N[C@@H](C)C(=O)NCc1ccc(N)nc1C` [compound 1496, (2R,4S)—N—((S)-1-(((6-Amino-2-methylpyridin-3-yl)methyl)amino)-1-oxopropan-2-yl)-1-ethyl-4-phenylpiperidine-2-carboxamide], the figures for the negative-log Ki (pKi) in assay [1], in assay [2] (read-out: MASP-2 Ki) and in assay [3] were less than 4.60, more than 6.30 and 5.60 to 6.30, respectively.
Consider `C[C@H](NC(=O)[C@H](N)CCc1ccccc1)C(=O)NCc1ccc(C(=N)N)nc1` [compound 1270, (R)-2-Amino-N—((S)-1-(((6-carbamimidoylpyridin-3-yl)methyl)amino)-1-oxopropan-2-yl)-4-phenylbutanamide], for which the pKi in assay [1], in assay [2] (read-out: MASP-2 Ki) and in assay [3] was more than 6.30 throughout. Further, the “MASP-2 vs. thrombin selectivity” value in assay [2] (setting [4]) was “** (≥5.0 to <25-fold)”.
`Cc1cccc([C@H]2CN[C@@H](C(=O)N[C@@H](C)C(=O)NCc3ccc(N)nc3C)C2)c1` [compound 1257, (2R,4S)—N—((S)-1-(((6-Amino-2-methylpyridin-3-yl)methyl)amino)-1-oxopropan-2-yl)-4-(m-tolyl)pyrrolidine-2-carboxamide]: the pKi in assay [1] was less than 4.60; in assay [2] (read-out: MASP-2 Ki), more than 6.30; in assay [3], 4.60 to 5.00. For the same molecule, the “MASP-2 vs. thrombin selectivity” value in assay [2] (setting [4]) is listed as “*** (≥25 to <100-fold)”.
In assay [1], `C[C@H](NC(=O)[C@H](N)CCc1ccccc1)C(=O)NCc1cc(Cl)ccc1-n1cncn1` [compound 1341, (R)-2-amino-N—((S)-1-((5-chloro-2-(1H-1,2,4-triazol-1-yl)benzyl)amino)-1-oxopropan-2-yl)-4-phenylbutanamide] gave an inhibitory constant (Ki) of 0.5 to 2.5 µM. Moreover, the pKi in assay [2] is 4.60 to 5.00; in assay [3] it was less than 4.60. Further, in assay [2] (setting [4]), the “MASP-2 vs. thrombin selectivity” value is on record as “−− (<1.0-fold)”.
In the case of `Cc1cc(C)cc(CC[C@@H](N)C(=O)N[C@@H](C)C(=O)NCc2ccc(C(=N)N)cc2)c1` [compound 1073], the pKi in assay [1], in assay [2] (read-out: MASP-2 Ki) and in assay [3] was more than 6.30 throughout. Also, the “MASP-2 vs. thrombin selectivity” value in assay [2] (setting [5]) is reported as “** (5.0 to 25-fold)”.
For `C[C@H](NC(=O)[C@H]1C[C@H](c2ccccc2)CN1)C(=O)NCc1cnc2c(c1)c(Cl)cn2C` [compound 1442, (2R,4R)—N—((S)-1-(((3-Chloro-1-methyl-1H-pyrrolo[2,3-b]pyridin-5-yl)methyl)amino)-1-oxopropan-2-yl)-4-phenylpyrrolidine-2-carboxamide Dihydrochloride], the pKi is less than 4.60 in assay [1], more than 6.30 in assay [2] (read-out: MASP-2 Ki) and more than 6.30 in assay [3].
Regarding `C[C@H](NC(=O)[C@H]1C[C@H](Cc2ccc(-c3cccnc3)cc2)CN1)C(=O)NCc1cc(Cl)ccc1-n1cnnn1` [compound 1404, (2R,4S)—N—((S)-1-((5-Chloro-2-(1H-tetrazol-1-yl)benzyl)amino)-1-oxopropan-2-yl)-4-(4-(pyridin-3-yl)benzyl)pyrrolidine-2-carboxamide Hydrochloride], the pKi in assay [1], in assay [2] (read-out: MASP-2 Ki) and in assay [3] was more than 6.30 throughout. For the same molecule, in assay [2] (setting [4]), the “MASP-2 vs. thrombin selectivity” value is “** (≥5.0 to <25-fold)”.
As for `Cc1nc(N)ccc1CNC(=O)[C@H](C)NC(=O)[C@H]1C[C@H](c2ccccc2)CN1` [compound 1265, (2R,4R)—N—((S)-1-(((6-Amino-2-methylpyridin-3-yl)methyl)amino)-1-oxopropan-2-yl)-4-phenylpyrrolidine-2-carboxamide], the pKi in assay [1] is less than 4.60; in assay [2] (read-out: MASP-2 Ki), more than 6.30; in assay [3] it was 5.00 to 5.60. Besides, in assay [2] (setting [4]), the “MASP-2 vs. thrombin selectivity” value is on record as “**** (≥100-fold)”.
As to `Cc1nc(N)ccc1CNC(=O)[C@H](C)NC(=O)[C@H]1C[C@@H](c2ccccc2)CCN1CC(=O)O` [compound 1398, 2-((2R,4S)-2-(((S)-1-(((6-Amino-2-methylpyridin-3-yl)methyl)amino)-1-oxopropan-2-yl)carbamoyl)-4-phenylpiperidin-1-yl)acetic acid Trifluoroacetate salt], the negative logarithm of the Ki (pKi) is less than 4.60 in assay [1], more than 6.30 in assay [2] (read-out: MASP-2 Ki) and 5.60 to 6.30 in assay [3].
In the case of `C[C@H](NC(=O)[C@H]1C[C@H](c2ccccc2)CN1)C(=O)NCc1ccc2c(N)n[nH]c2c1` [compound 1425, (2R,4R)—N—((S)-1-(((3-Amino-1H-indazol-6-yl)methyl)amino)-1-oxopropan-2-yl)-4-phenylpyrrolidine-2-carboxamide Trifluoroacetate salt], the negative-log Ki (pKi) in assay [1] was less than 4.60; in assay [2], 5.00 to 5.60; in assay [3], 5.60 to 6.30.
On to `Cc1cccc([C@@H]2CCN[C@@H](C(=O)N[C@@H](C)C(=O)NCc3ccc(C(=N)N)cc3)C2)c1` [compound 1241, (2R,4R)—N—((S)-1-((4-Carbamimidoylbenzyl)amino)-1-oxopropan-2-yl)-4-(m-tolyl)piperidine-2-carboxamide], for which the negative logarithm of the Ki (pKi) in assay [1], in assay [2] (read-out: MASP-2 Ki) and in assay [3] was more than 6.30 throughout. Besides, the “MASP-2 vs. thrombin selectivity” value in assay [2] (setting [4]) was “* (≥1.0 to <5.0-fold)”.
For the molecule `C[C@H](NC(=O)[C@@H](CCc1ccccc1)NCc1ccc(C(N)=O)cc1)C(=O)NCc1ccc(C(=N)N)cc1` [compound 1268, 4-((((R)-1-(((S)-1-((4-Carbamimidoylbenzyl)amino)-1-oxopropan-2-yl)amino)-1-oxo-4-phenylbutan-2-yl)amino)methyl)benzamide], the negative logarithm of the Ki (pKi) in assay [1], in assay [2] (read-out: MASP-2 Ki) and in assay [3] was more than 6.30 in each case. In addition, the “MASP-2 vs. thrombin selectivity” value in assay [2] (setting [4]) is “* (≥1.0 to <5.0-fold)”.
Consider `Cc1cccc(CC[C@@H](N)C(=O)N[C@@H](C)C(=O)NCc2ccc(C(=N)N)cc2)c1` [compound 1046], for which the pKi in assay [1], in assay [2] (read-out: MASP-2 Ki) and in assay [3] was more than 6.30 each time. For the same molecule, the “MASP-2 vs. thrombin selectivity” value in assay [2] (setting [5]) is “** (5.0 to 25-fold)”.
